{
  "source": "patent US8742068B2",
  "about": "“Treatment and prevention of inflammatory diseases and autoimmune diseases” (Universiteit Utrecht Holding B.V., priority 2007, dated 2014)",
  "key": {"DSS colitis": {"system": "DSS colitis", "assay": "DSS colitis, peroral treatment (Prague study, 2nd part, Example 4)", "format": "in vivo, BALB/c mice", "method": "Fifteen conventional female Balb/c female mice (7 to 9 weeks old) were randomly separated in […] (five mice each). To evaluate the efficacy of per oral treatment, the antigens (full length Mycobacterial HSP70 protein) were administered together with 1 mg of Soybean trypsin inhibitor (SBTI, Sigma) dissolved in 50 μl of 0.15 M sodium bicarbonate, by gavage 4 times in one week interval. After one week the mice received 3% dextran sodium sulphate (DSS) in their drinking water continuously for up to 8 days. Colitis was evaluated on day 36 by a clinical activity score, by colon length and histological score.\n• treated: 100 μl of sterile PBS/SBTI intragastrically (Control) Group B2 (HSP60+DSS): • treated: HSP60 30 μg/mouse in 100 μl of sterile PBS/SBTI (1:1) intragastrically Group C2 (HSP70+DSS): • treated: HSP70 30 μg/mouse in 100 μl of sterile PBS/SBTI (1:1) intragastrically Results"}, "[1]": {"system": "proteoglycan induced arthritis", "assay": "Proteoglycan induced arthritis (PGIA), intranasal pre-treatment", "format": "in vivo, Balb/c mice", "settings": "Example 8: 30 μg intranasally on day −7, −5 and −3 before disease induction", "from_the_text": "The proteoglycan induced arthritis model (PGIA) is a murine model of rheumatoid arthritis and is described to be a T-cell dependent and antibody mediated model. In the model arthritis is induced by two times injection of human proteoglycan (hPG) in a synthetic adjuvant dimethyldioctadecylammonium (DDA), see Hanyecz A. et al., Achievement of a synergistic adjuvant effect on arthritis induction by activation of innate immunity and forcing the immune response toward the Th1 phenotype. Arthritis Rheum. 2004 50(5):1665-76.\nBecause arthritis is induced by immunization with a synthetic adjuvant, instead of complete Freund's adjuvant (CFA), the role of interfering immune responses, induced by microbial Hsp's present in CFA, can be excluded. Due to cross reactive responses, between the human and the mouse (self) PG, a chronic and relapsing arthritis develops. After disease development, arthritis severity is scored by clinical assessment of thickness, redness and deformation of the joints on a scale of 1-4 per paw.\nTen female Balb/c mice, retired breeders obtained from Charles River, were randomly divided in two groups. To evaluate the effect of intra nasal treatment with Mycobacterial HSP70 (SEQ ID NO: 55) on PGIA 30 μg Hsp70 in 10 μl PBS was administered on day −7, −5 and −3 before disease induction. PGIA was induced by two times i.p. injection with 400 μg hPG and 2 mg DDA in 200 μl PBS. Subsequently developed arthritis scores were assessed by clinical evaluation as described in Example 7.\nFifteen female Balb/c mice, retired breeders obtained from Charles River, were randomly divided in three groups (five mice per group). To evaluate the effect of intranasal treatment with Hsp70-derived peptides “B1” (SEQ ID NO: 1) and a mixture of C1 (SEQ ID NO: 3) and mC1a (SEQ ID NO: 4) (designated herein as “C1mix”) on PGIA 100 μg peptide in 10 μl PBS was administered on day −7, −5 and −3 before disease induction. Ovalbumin peptide 323-339 (pOva) was used as a control peptide. PGIA was induced by two times i.p. injection with 400 μg hPG and 2 mg DDA in 200 μl PBS. Subsequently developed arthritis scores were assessed by clinical evaluation.\nTwelve female Balb/c mice, retired breeders obtained from Charles River, were randomly divided in two groups (six mice per group). To evaluate the effect of intra nasal treatment with Hsp70 derived mC1 a on PGIA 100 μg peptide in 10 μl PBS was administered on day −14, −11, −7 and −4 before disease induction. Ovalbumin peptide (pOva) was used as a control peptide. PGIA was induced by two times i.p. injection with 400 μg hPG and 2 mg DDA in 200 μl PBS. Subsequently developed arthritis scores were assessed by clinical evaluation.\nEighteen female Balb/c mice, retired breeders obtained from Charles River, were randomly divided in three groups (six mice per group). To evaluate the effect of intranasal (i.n.) treatment with Hsp70 derived peptides C1 and its mouse homologue mC1a on PGIA 100 μg peptide in 10 μl PBS was administered on day −7, −5 and −3 before disease induction (see FIG. 28). Ovalbumin peptide (pOva) was used as a control peptide. PGIA was induced by two times i.p. injection with 300 μg hPG and 2 mg DDA in 200 μl PBS. Subsequently developed arthritis scores were assessed by clinical evaluation. • Group A: (pOva): Treated with 100 μg pOva in 10 μl PBS intranasally • Group B (C1): Treated with 100 μg C1 in 10 μl PBS intranasally • Group C (mC1a): Treated with 100 μg mC1a in 10 μl PBS intranasally"}, "adjuvant arthritis": {"system": "adjuvant arthritis", "settings": "in vivo; cited from earlier work"}, "[2]": {"settings": "30 μg/mouse intragastrically with SBTI, 4 times before 3% DSS, 5 mice"}, "[3]": {"settings": "Multiple Range Tests, * p < 0.05"}},
  "data": [
    {"substance": "HSP70: full length Mycobacterial HSP70 protein (SEQ ID NO: 55)", "values": [
      {"measurement": "Histological grade, Average", "setting": "DSS colitis; [2]", "value": 1.225},
      {"measurement": "Weight change, Average", "setting": "DSS colitis; [2]", "value": "−0.44"},
      {"measurement": "Histological grade, Difference (contrast PBS minus treatment)", "setting": "DSS colitis; Multiple Range Tests", "value": 0.35},
      {"measurement": "Colon length, Difference (contrast PBS minus treatment)", "setting": "DSS colitis; [3]", "value": "*−1.02"},
      {"measurement": "Weight change, Difference (contrast PBS minus treatment)", "setting": "DSS colitis; [3]", "value": "*−4.62"},
      {"measurement": "symptoms of colitis compared to PBS", "setting": "DSS colitis; p=0.0057, 0.0387 and 0.0831 for colon length, weight loss and clinical state", "value": "significantly mitigates the symptoms of colitis"},
      {"measurement": "arthritis development (arthritis score)", "setting": "[1]", "value": "can suppress arthritis development"},
      {"measurement": "development of adjuvant arthritis", "setting": "adjuvant arthritis", "value": "reduce the development of adjuvant arthritis"}
    ]}
  ]
}
